# US5736523A, “Antineoplastic heteronapthoquinones” (Biochem Pharma Inc., priority 1995, dated 1998)
# pIC50: −log10 of the molar value. Counter-ions that a name gives are not always drawn.
# Test system: SKVLB (Ovarian; multidrug resistant)
# Assay: In vitro cytotoxicity, microculture tetrazolium (MTT) assay, SKVLB
# Assay type: cell-based, human
# Conditions: Homo sapiens
# Procedure: In Vitro Cytotoxicity--Microculture Tetrazolium Assay
# The microculture tetrazolium assay was used to test in vitro cytotoxicity. This assay is described in Plumb, J. A. et al., 1989 Cancer Research 49, 4435-4440, which is herein incorporated by reference. The cytotoxicity of compounds towards tumor cells is measured in vitro using the assay. This assay method is based upon the ability of live, but not dead cells to reduce the yellow water soluble dye 3-(4;5-dimethylthiazol-2-yl)-2,5-diphenyltetrazolium bromide (MTT) to its water insoluble purple formazan product.
# Human Tumor Cell lines, used were:
# SKVLB (Ovarian; multidrug resistant)--Dr. V. Ling, Ontario
# The cells were maintained in exponential growth in culture in minimal essential media (MEM) supplemented with non-essential amino acids, and containing 15% (v/v) fetal bovine serum, 5 mM L-glutamine, 1 mM sodium pyruvate, and 0.1 U/ml insulin. All cell lines were grown at 37° C. in an atmosphere of 5% CO2 in air.
# Test compounds: 20 mM in DMSO and diluted to a final concentration of 200 μM in culture medium before use.
# The following is the generic description of the assay method. It should be noted that although the conditions described work well with the cells listed above, the initial plating density and the MTT concentration used should be verified for each new cell line used to test compounds.
# For each assay, doxorubicin is included as an inter-assay standard. This allows us to monitor the behaviour of the assay in general, and in particular, to check that the SKVLB line has maintained its resistant phenotype.
# The plate layout is done in the following manner: The assays are carried out in 96-well (8 well×12 well) microtiter plates. Serial dilutions of the compound are tested along the length of the plate. A 1:3 serial dilution of compound in culture medium covers a concentration range from 100 μM to 1.7 nM. Each concentration of compound is tested in quadruplet, allowing two compounds to be tested per plate. Wells containing no cells (blank) and cells with no test compound (control) are included on each plate.
# Cells are plated out in 100 μl of culture medium in the microtiter plates at a density of around 1,500-4,000 cells per well. The plates are incubated overnight to allow the cells to become adherent after which the test compound is added (100 μl of appropriate dilution per well). The cells are incubated with test compound at 37° C. for 48 h after which the compound is replaced with fresh medium. After a further 48 h incubation at 37° C., 50 μl of MTT solution (2 mg/ml) is added to each well. The plates are incubated in the dark for 4 h at 37° C. after which the medium is removed. The MTT formazan product is extracted from the cells by the addition of 200 μl DMSO followed by 50 μl of Sorensen's buffer. The plates are shaken briefly and the absorbance at 570 nm is read using a Molecular Devices UV max plate reader. Curves are fit to the MTT assay data using a four parameter logistic equation, and the data are normalized to fit a 0% to 100% survival scale.
row,Structure (SMILES),pIC50
1,"COC(=O)C1=CC2=C(CO1)C(=O)c1ccccc1C2=O [BCH2830, 3-methoxy carbonyl-5,10-dioxo-5,10-dihydro-1H-naphtho-[2,3-c]-pyran]",4.97

# Same assay, conditions: ratio SKVLB / SKOV3
row,Structure (SMILES),VLB/OV3
1,"CC(=O)CC1CC2=C(C(=O)c3cccc(O)c3C2=O)C(O[C@H]2C[C@H](NC(=O)C(F)(F)F)[C@H](O)[C@H](C)O2)O1 (mixture of isomers) [BCH2098, (1'-S,1-S,3-R) and (1'-S,1-R,3-S)-1-(6-hydroxy-1-(2',3',6'-trideoxy-3'-trifluoroacetamido,4-hydroxy-L-lyxopyranose)-5,10-dioxo-3,4,5,10 tetrahydronaphtho-[2,3-c]pyran-3-yl) propane-2-one]",4
2,"CC(=O)O[C@@H]1[C@H](C)O[C@@H](O[C@@H]2O[C@@H](C(C)=O)CC3=C2C(=O)c2ccccc2C3=O)C(Br)[C@@H]1OC(C)=O (stereo partly drawn) [BCH2099, (1'S,1S,3R)-methyl-(1-[2',6'-dideoxy-3',4'-diacetoxy-2'-bromo-L-lyxohexopyranose]-5,10-dioxo-3,4,5,10-tetrahydronaphtho-[2,3-c]-pyran-3-yl) ketone]",0.77-2
3,"CC(=O)[C@@H]1CC2=C(C(=O)c3ccccc3C2=O)[C@@H](O[C@H]2C[C@H](NC(=O)C(F)(F)F)[C@H](O)[C@H](C)O2)S1 [BCH2037, (1'S,1S,3S)-1-(3'-trifluoroacetamido-2',3',6'-trideoxy-L-lyxohexopyranose)-5,10-dioxo-3,4,5,10-tetrahydro-1H-naphtho-[2,3-c]-thiopyran]",0.93-6.41
4,"COC(=O)C1(C(=O)OC)CC2=C(CO1)C(=O)c1ccccc1C2=O [BCH1665, 3,3-bis-(methoxycarbonyl)-5,10-dioxo-3,4,5,10-tetrahydro-1H-naphtho-[2,3-c]-pyran]",1.14
5,"COC(=O)C1=CC2=C(CO1)C(=O)c1ccccc1C2=O [BCH2830, 3-methoxy carbonyl-5,10-dioxo-5,10-dihydro-1H-naphtho-[2,3-c]-pyran]",1.52
6,"CC[C@H]1CC2=C(C(=O)c3ccccc3C2=O)[C@H](O[C@H]2C[C@H](NC(=O)C(F)(F)F)[C@H](O)[C@H](C)O2)O1 [BCH2020, (1'S,1S,3S)-5,10-dioxo-3-ethyl-1-(2',3',6'-trideoxy-3'-trifluoroacetamido-L-lyxohexopyranose)-3,4,5,10-tetrahydro-1H-naphtho-[2,3-c]-pyran]",2.31
7,"CC(=O)[C@@H]1CC2=C(C(=O)c3ccccc3C2=O)[C@@H](O[C@@H]2O[C@@H](C)[C@@H](O)[C@@H](O)[C@H]2I)O1 [BCH2015, (1'S,1R,3S)-methyl-(1-[2',6'-dideoxy-3',4'-dihydroxy-2'-iodo-L-lyxohexopyranose]-5,10-dioxo-3,4,5,10-tetrahydronaphtho [2,3-c]-pyran-3-yl) ketone]",3.19
8,"CO[C@@H]1O[C@H](C(=O)Nc2ccccc2)CC2=C1C(=O)c1ccccc1C2=O (relative stereo) [BCH2042, (1,3-cis)-1-methoxy-3-N-anilinylcarbonyl-5,10-dioxo-3,4,5,10-tetrahydro-1H-naphtho-[2,3-c]-pyran]",3.51
9,"CC(=O)[C@@]1(C)CC2=C(C(=O)c3ccccc3C2=O)[C@H](O[C@H]2C[C@H](NC(=O)C(F)(F)F)[C@H](O)[C@H](C)O2)O1 [BCH2082, (1'S,1S,3R)-1-(3'-trifluoroacetamido-2',3',6-trideoxy-L-lyxohexopyranose)-3-acetyl-3-methyl-5,10-dioxo-4,5,10-trihydro-1H-naphtho-[2,3-c]-pyran]",3
10,"C[C@@H]1O[C@@H](OC2OC(C#N)CC3=C2C(=O)c2ccccc2C3=O)C[C@H](NC(=O)C(F)(F)F)[C@@H]1O (mixture of isomers) [BCH1688, (1'-S,1-R,3-S) and (1'-S,1-S,3-R)-3-cyano-1-[2',3',6'-trideoxy-3'-trifluoroacetamido-4'-hydroxy-L-lyxohexopyranose)-5,10-dioxo-3,4,5,10-tetrahydronaphtho-[2,3-C] pyran-3-yl]",4.37
11,"Nc1nc(C2CC3=C(CO2)C(=O)c2ccccc2C3=O)cs1 (stereo not drawn) [BCH1189, 3-(3'-aminothiazolyl)-5,10-dioxo-1,3,4,5,10-pentahydronaphtho-[2,3-c]-pyran]",4.09
12,"COC(=O)[C@@]1(C)CC2=C(C(=O)c3ccccc3C2=O)[C@H](O[C@H]2C[C@H](NC(=O)C(F)(F)F)[C@H](O)[C@H](C)O2)O1 [BCH2076, (1'S,1S,3R)-1-(3'-trifluoroacetamido-2',3',6'-trideoxy-lyxo-L-hexopyranose)-3-methoxycarbonyl-3-methyl-3,4,5,10-tetrahydro-5,10-dioxonaphtho-[2,3-c] pyran]",9
13,"CC(=O)[C@@H]1CC2=C(C(=O)c3ccc(O)cc3C2=O)[C@@H](O[C@H]2C[C@H](NC(=O)C(F)(F)F)[C@H](O)[C@H](C)O2)O1 [BCH1181, (1'S,1R,3S)-Methyl (5,10-dioxo-1-(2',3',6'-trideoxy-3'-trifluoroacetamido-L-lyxohexopyranose)-7-hydroxy-3,4,5,10-tetrahydro [2,3-C]pyran-3-yl) ketone]",3.75
14,"CC(=O)[C@@H]1CC2=C(C(=O)c3ccccc3C2=O)[C@@H](O[C@@H]2O[C@@H](C)[C@@H](O)[C@@H](NC(=O)C(F)(F)F)C2I)O1 (stereo partly drawn) [BCH2023, (1'S,1R,3S)-methyl-(1-[2',3',6'-trideoxy-2'-iodo-3'-trifluoroacetamido-4'-hydroxy-L-lyxohexopyranose]-5,10-dioxo-3,4,5,10-tetrahydronaphtho-[2,3-c]-pyran-3-yl) ketone]",4.39
15,"CC(=O)C1CC2=C(C(=O)c3ccccc3C2=O)C(OCC2CCCN(C(=O)OC(C)(C)C)C2)O1 (mixture of isomers) [BCH2060, Methyl-(1-O-[N-BOC-3-piperidinemethanol]-5,6-dioxo-3,4,5,10-tetrahydronaphthaleno-[2,3-c]pyran-3-yl) ketone, mixture of isomers]",2.19
16,"C[C@@H]1O[C@@H](O[C@H]2O[C@H](COc3ccccc3)CC3=C2C(=O)c2ccccc2C3=O)C[C@H](NC(=O)C(F)(F)F)[C@@H]1O [BCH2032, (1'S,1R,3S)-5,10-dioxo-3-phenyloxymethyl-1-(2',3',6'-trideoxy-3'-trifluoroacetamido-L-lyxohexopyranose)-3,4,5,10-tetrahydro-1H-naphtho-[2,3-c] pyran]",2-2.93
17,"CC(=O)[C@H]1CC2=C(C(=O)c3ccccc3C2=O)[C@H](O[C@@H]2O[C@@H](C)[C@@H](O)[C@@H](O)[C@H]2I)O1 [BCH2014, (1'S,1S,3R)-methyl-(1-[2',6'-dideoxy-3',4'-dihydroxy-2'-iodo-L-lyxohexopyranose]-5,10-dioxo-3,4,5,10-tetrahydronaphtho [2,3-c]-pyran-3-yl)-ketone]",1.85
18,"COC1OC(C(=O)NCCN2CCCC2)=CC2=C1C(=O)c1ccccc1C2=O.Cl (stereo not drawn) [BCH2839, 1-methoxy-3-[2-(N-pyrrolidinyl)ethylaminocarbonyl]-5,10-dioxo-5,10-dihydro-1H-naphtho-[2,3-c]-pyran hydrochloride salt]",6.14-9.98
19,"CC(=O)C1CC2=C(C(=O)c3ccccc3C2=O)C(OCC2CCCCN2)O1 (racemic) [BCH2069, Methyl-(1-O-[2'-piperidinemethanol]-5,10-dioxo-3,4,5,10-tetrahydronaphthaleno-[2,3-c]pyran-3-yl) ketone, racemic, hydrochloride]",2-9.8
20,"CC(C)[C@@H]1CC2=C(C(=O)c3ccccc3C2=O)[C@@H](O[C@H]2C[C@H](NC(=O)C(F)(F)F)[C@H](O)[C@H](C)O2)O1 [BCH2053, (1'S,1R,3S)-5,10-dioxo-3-isopropyl-1-(2',3',6'-trideoxy-3'-trifluoroacetamido-L-lyxohexopyranose)-3,4,5,10-tetrahydro-1H-naphtho-[2,3-c]-pyran]",4.48
